Experimental data taken from article PMC4552634, “A New Set of Chemical Starting Points with Plasmodium falciparum Transmission-Blocking Potential for Antimalarial Drug Discovery” (PLoS ONE, 2015).
Like-named read-outs stand apart in the source and are kept apart here.

Columns and labels:
[1] = test system: P. falciparum stage V gametocytes; assay: Gametocytocidal ATP bioluminescence assay (single point 5 μM and 1 μM, dose-response); type: cell-based, Plasmodium falciparum; conditions: for Ratio IC50 HepG2/IC50 P. falciparum: IC50 HepG2 divided by IC50 P. falciparum gametocytes
[2] = test system: P. falciparum asexual stages; conditions: TCAMS data, cited from earlier work
HepG2 cells = assay: Cytotoxicity in HepG2 cells (intracellular ATP, ATPlite, 48 h); type: cell-based, human; conditions: IC50 HepG2 divided by IC50 P. falciparum gametocytes
[3] = as above; type: cell-based, human; conditions: human, HepG2 cells
[4] = test system: luciferase reaction (BacTiter-Glo); assay: Interference assay (inhibition of the BacTiter-Glo luciferase reaction); type: biochemical; parameters: concentration or dose not given beside the values; conditions: ATP interference assay
Protocol: To discard possible false-positive results, we performed an interference assay in parallel. […] […]. The ATP solution was made by dissolving ATP powder (ATP standard from the ATPlite 1 step assay kit, reference 6016731, Perkin Elmer) in culture medium. The positive control used was the Luciferase Inhibitor I Calbiochem (Merck, 119113) at 100 μM.

[5] = Plasmodium falciparum, P. falciparum gametocytes, average, read-out: IC50 Pf Gametocytes average, IC50 (µM) average
[6] = Plasmodium falciparum, sexual stages (gametocytes), dose-response, read-out: IC50 sexual
[7] = P. falciparum asexual stages, read-out: IC50 (µM) Pf asexual stages
[8] = asexual stages, read-out: IC50 asexual
[9] = IC50 per ratio column head, unit inferred, read-out: Cytotoxicity in HepG2
[10] = HepG2, 48 h exposure, intracellular ATP, read-out: IC50 (μM) Cytotoxicity HepG2
[11] = sexual stages (gametocytes), dose-response, read-out: IC50 sexual

Structure (SMILES) | % Control luminiscence [4] [%] | Ratio IC50 HepG2/IC50 P. falciparum [1] | IC50 [1, 5] [µM] | IC50 [1, 6] [µM] | IC50 [2, 7] [µM] | IC50 [2, 8] [µM] | Ratio IC50 HepG2/IC50 P. falciparum (HepG2 cells) | IC50 at 48 h [3, 9] [µM] | IC50 at 48 h [3, 10] [µM] | IC50 [1, 11] [µM] | %_Inh ([1]; gametocytes, primary screen at 5 μM (S10 Table, MCSI analogs)) [%]
c1ccc2sc(Sc3ncnc4sccc34)nc2c1 [TCMDC-125539] | 100 | >50 | 0.5 | 0.497 | 0.73 | 0.734 | >50 | > 25 |  |  | 
C=CCN(C(=O)c1ccc(Cl)c([N+](=O)[O-])c1)c1nc(-c2ccccc2)cs1 [TCMDC-124436] | 100 | >237 | 0.11 | 0.105 | 0.4 | 0.398 | >237 | > 25 |  |  | 
COc1cccc(CC(=O)N2CCC(n3c(C)nc4ccc(C)cc43)CC2)c1 [TCMDC-124791] | 100 | >53 | 0.47 |  | 0.11 | 0.114 | >53 | > 25 |  |  | 
Cc1ccc(-n2c(C)nc3c(Nc4ccc(-c5ccncc5)cc4)ncnc32)c(C)c1 [TCMDC-136289] | 100 | >47 | 0.53 |  |  | 0.101 | >47 | > 25 |  | 0.533 | 
CCN(CC)C(=NC(=N)Nc1ccc(Cl)cc1)NCCCCCCCCNC(=NC(=N)Nc1ccc(Cl)cc1)N(CC)CC [TCMDC-131812] | 100 | >24 | 1.03 |  |  | 0.403 | >24 | > 25 |  |  | 
COCCCNC(=S)NN=C(C)c1ccccn1 [TCMDC-137907] | 100 | 106 | 0.16 |  | 0.3 | 0.296 | 106 | 17 |  |  | 
CCCCN1CCN(CCCCNc2c3ccccc3nc3ccccc23)CC1 [TCMDC-137569] | 100 | 11 | 1.19 |  | 0.17 | 0.167 | 11 | 12.7 | 13 |  | 
S=C(NN=Cc1ccccn1)Nc1ccc2c(c1)OCCO2 [TCMDC-132009] | 100 | 4 | 0.83 |  |  | 1.05 |  | 3.28 |  |  | 
CN1CCN(CCCCNc2c3ccccc3nc3ccccc23)CC1 [TCMDC-137479] | 100 | 2.57 | 1.32 |  |  | 0.704 |  | 3.39 |  | 1.32 | 
[O-][s+]1c(Cl)c(-c2ccc(Cl)cc2)c2ccc(Cl)cc21 (stereo not shown) [TCMDC-124011] | 100 |  | 0.02 |  |  | 0.993 |  | 12.8 |  |  | 
FC(F)c1nc2ccccc2n1-c1nc(N2CCOCC2)nc(N2CCOCC2)n1 [TCMDC-137004] | 98 | 0.291 | 5.44 |  |  | 0.761 |  | 1.58 |  | 5.44 | 
Fc1ccc2[nH]c(-c3ccc(-c4ccc(CN5CCC(CCN6CCCCC6)CC5)cc4)s3)nc2c1 [TCMDC-133932] | 100 | 27 | 0.14 |  |  | 0.142 |  | 3.79 |  |  | 
CCOc1ccc(-c2nonc2NC(=O)c2cccc(Cl)c2)cc1OCC [TCMDC-125200] | 100 |  | 0.84 |  | 0.15 | 0.147 |  | > 25 |  |  | 
COc1ccc(C[C@H](N)C(=O)N[C@H]2[C@@H](O)[C@H](n3cnc4c(N(C)C)ncnc43)O[C@@H]2CO)cc1 [TCMDC-123493] | 100 | 5 | 0.56 |  |  | 0.174 |  | 2.95 |  | 0.563 | 
Cc1cccc2nc(-c3cccc(-c4cccc(CNCCN5CCNCC5)c4)c3)[nH]c12 [TCMDC-132873] | 100 | 16 | 0.5 |  |  | 0.97 |  | 7.76 |  | 0.497 | 
CC[C@H]1CN2CCc3cc(OC)c(OC)cc3[C@@H]2C[C@@H]1C[C@H]1NCCc2cc(OC)c(OC)cc21 [TCMDC-125531] | 95 |  | 0.35 | 0.347 | 0.21 | 0.214 |  | 21 | 21 |  | 
COc1cc(-c2cc(-c3ccc(S(C)(=O)=O)cc3)cnc2N)ccc1O [TCMDC-133343] | 100 |  | 1.24 | 1.24 | 0.1 | 0.101 |  | > 25 |  |  | 
N=C(NCC1CC1c1ccccc1)c1cccc(C(=N)NCC2CC2c2ccccc2)n1 (stereo not shown) [TCMDC-137456] | 100 | 15 | 0.45 |  |  | 1.76 |  | 6.8 |  |  | 
CCc1ccc(CN2CCC(CNC(=O)c3cc(-c4cccc(F)c4)cs3)C2)cc1 (stereo not shown) [TCMDC-134432] | 100 | 6 | 1.26 |  |  | 1.36 |  | 7.22 |  | 1.26 | 
Cc1cccc2nc(-c3ccc(-c4ccc(CN5CCC(CCN6CCCCC6)CC5)cc4)cc3)[nH]c12 [TCMDC-133929] | 100 | 14 | 0.27 |  |  | 0.144 |  | 3.7 |  | 0.267 | 
Cc1cccnc1Nc1nc(-c2ccccn2)cs1 [TCMDC-125846] | 100 | 30 | 0.1 |  |  | 0.687 |  | 3.02 |  |  | 

Continued, in another order:

% Control luminiscence [4] [%] | Structure (SMILES) | Ratio IC50 HepG2/IC50 P. falciparum [1] | IC50 [1, 5] [µM] | IC50 [1, 6] [µM] | IC50 [2, 7] [µM] | IC50 [2, 8] [µM] | Ratio IC50 HepG2/IC50 P. falciparum (HepG2 cells) | IC50 at 48 h [3, 9] [µM] | IC50 at 48 h [3, 10] [µM] | IC50 [1, 11] [µM] | %_Inh ([1]; gametocytes, primary screen at 5 μM (S10 Table, MCSI analogs)) [%]
100 | FC(F)(F)c1ccc2[nH]c(-c3cccc(-c4ccc(CNCCN5CCNCC5)cc4)c3)nc2c1 [TCMDC-132872] | 15 | 0.86 |  | 0.86 | 0.862 | 15 | 12.6 | 13 |  | 
99 | COc1ccc(Nc2nccc(-c3ccc4ccnc(NCCCCN)c4c3)n2)cc1 [TCMDC-136642] | >77 | 0.33 | 0.327 |  | 0.75 | >77 | > 25 |  |  | 
100 | COc1cccc(C(=O)NC(C=Cc2ccccc2)c2cc(Cl)c3cccnc3c2O)c1 (stereo not shown) [TCMDC-125550] | >43 | 0.59 |  |  | 0.859 | >43 | > 25 |  | 0.585 | 
100 | COc1ccc(COc2cc(NCCCN)nc3ccccc23)cc1 [TCMDC-139286] | 25 | 0.56 |  | 1.28 | 1.28 | 25 | 14 | 14 |  | 
100 | COc1ccc2nc(-c3ccccc3)cc(NCCCNc3cc(-c4ccccc4)nc4ccc(OC)cc34)c2c1.Cl [TCMDC-137734] | 4.53 | 1.21 |  |  | 0.122 |  | 5.5 |  | 1.21 | 
100 | COc1ccc(CNC(=O)c2cnc3c(O)cccc3c2Nc2cccc(NC(=O)c3ccc(Cl)c(Cl)c3)c2)cc1.O=C(O)C(F)(F)F [TCMDC-139607] | <2.3 | 0.68 |  |  | 0.604 |  | < 1.56 |  |  | 
98 | CC(C)CCNC(=O)c1cnc2c(O)cccc2c1Nc1cccc(NC(=O)c2ccc(F)cc2)c1.O=C(O)C(F)(F)F [TCMDC-139606] | 4 | 1.27 |  |  | 0.913 |  | 5.27 |  |  | 
100 | COc1cc(NCC(C)CNCc2cn(Cc3ccccc3)c3ccccc23)nc2ccccc12 (stereo not shown) [TCMDC-140496] | 3 | 1.71 |  |  | 0.633 |  | 5 |  |  | 
100 | Cc1cccc2nc(-c3ccc(-c4cccc(CN5CCC(CCN6CCCCC6)CC5)c4)s3)[nH]c12.O=C(O)C(F)(F)F [TCMDC-133923] | 8 | 0.46 | 0.463 |  | 0.14 |  | 3.87 |  |  | 107.301
100 | COc1cc2nc(N3CCC(CNCc4ccc(-c5ccc(C(F)(F)F)cc5)cc4)CC3)nc(N)c2cc1OC [TCMDC-138757] | <88 | 0.0177 |  |  | 0.087 |  | < 1.56 |  | 0.018 | 
